{"source": "patent US7531555B2", "about": "“Compositions and methods for selective inhibition of nicotine acetylcholine receptors” (University of Florida Research Foundation, Inc., priority 2003, dated 2009)", "key": {"mice": {"tested_on": "mice", "test": "Locomotor activity, nicotine-induced hypomotility", "assay_type": "in vivo", "settings": "for Locomotor Activity # Interrupts (Mean ± SEM): s.c.", "method": "Animals. Male ICR mice (20-25 g) obtained from Harlan Laboratories (Indianapolis, Ind.) were used throughout the study. Animals were housed in groups of six and had free access to food and water. Adult, male Long-Evans rats (350-460 g), obtained from Harlan (Dublin, Va.), were individually housed in a temperature-controlled (20-22° C.) environment with a 12-hour light-dark cycle (lights on at 7 a.m.). Rats were maintained within the indicated weight range by restricted post-session feeding and had ad libitum water in their home cages. Rats were drug-naive at the beginning of the study. Animals were housed in an AALAC approved facility and the study was approved by the Institutional Animal Care and Use Committee of Virginia Commonwealth University.\nLocomotor activity. Mice were placed into individual Omnitech photocell activity cages (28×16.5 cm) immediately after s.c. administration of either 0.9% saline or nicotine (6.2 μmol/kg or 1 mg/kg) and were allowed to acclimate for 10 minutes. Interruptions of the photocell beams (two banks of eight cells each) were then recorded for the next 10 minutes. Data were expressed as percentage of depression where % depression=[1−(counts from nicotine-treated animals/counts from vehicle-treated animals)]×100. Mice were pretreated s.c. with either saline or TMPH 10 minutes before nicotine.\nEight to twelve mice were tested in each treatment group and each animal was tested only once.\nStatistical analysis. Statistical analysis of all analgesic and in vivo studies was performed using either t-test or analysis of variance (ANOVA) with Tukey's test post hoc test when appropriate. All differences were considered significant at p<0.05. AD50 values with 95% CL for behavioral data were calculated by unweighted least-squares linear regression as described by Tallarida and Murray (Tallarida and Murray Manual of Pharmacological Calculations with Computer Programs. 1987, Springer-Verlag, New York)."}, "Rat α4β2": {"target": "T1, Rat α4β2 (Rattus norvegicus, UniProt P09483+P12390)", "T1 construct": "expressed in transfected cells; host or cells: Xenopus laevis oocytes injected with subunit cRNAs; clones from Dr. Jim Boulter (UCLA)", "T1 sequence (P09483 31-630)": "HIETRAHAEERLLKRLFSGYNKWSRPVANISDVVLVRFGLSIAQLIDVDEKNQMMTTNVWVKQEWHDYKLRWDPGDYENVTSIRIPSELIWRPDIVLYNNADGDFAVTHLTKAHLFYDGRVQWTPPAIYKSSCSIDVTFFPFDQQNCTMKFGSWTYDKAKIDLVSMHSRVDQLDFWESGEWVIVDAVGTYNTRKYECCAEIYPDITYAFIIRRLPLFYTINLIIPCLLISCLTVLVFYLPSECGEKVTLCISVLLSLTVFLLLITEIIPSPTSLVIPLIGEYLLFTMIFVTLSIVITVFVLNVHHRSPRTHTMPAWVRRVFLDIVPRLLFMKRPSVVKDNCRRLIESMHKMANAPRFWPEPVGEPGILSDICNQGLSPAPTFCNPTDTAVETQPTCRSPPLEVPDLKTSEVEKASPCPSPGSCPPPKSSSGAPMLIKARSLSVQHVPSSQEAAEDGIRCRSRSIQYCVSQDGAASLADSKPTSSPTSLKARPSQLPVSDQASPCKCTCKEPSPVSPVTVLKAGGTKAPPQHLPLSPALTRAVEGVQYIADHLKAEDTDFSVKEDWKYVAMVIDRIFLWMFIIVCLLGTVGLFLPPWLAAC", "T1 sequence (P12390 25-500)": "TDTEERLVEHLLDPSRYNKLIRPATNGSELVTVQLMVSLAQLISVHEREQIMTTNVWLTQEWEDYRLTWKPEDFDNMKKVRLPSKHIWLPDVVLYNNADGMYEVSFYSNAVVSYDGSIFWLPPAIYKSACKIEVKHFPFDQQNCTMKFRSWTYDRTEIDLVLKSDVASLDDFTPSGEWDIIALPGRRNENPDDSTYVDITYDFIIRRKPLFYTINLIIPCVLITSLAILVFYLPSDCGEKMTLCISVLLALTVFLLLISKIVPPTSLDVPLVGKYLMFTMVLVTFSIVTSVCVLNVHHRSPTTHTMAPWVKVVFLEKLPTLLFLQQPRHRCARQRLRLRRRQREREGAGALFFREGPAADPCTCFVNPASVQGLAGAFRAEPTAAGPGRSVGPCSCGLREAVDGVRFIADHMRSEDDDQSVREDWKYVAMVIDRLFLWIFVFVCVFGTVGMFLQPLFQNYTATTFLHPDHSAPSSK", "test": "Voltage clamp of Xenopus oocytes expressing α4β2 nAChR", "assay_type": "cell-based", "method": "Mature (>9 cm) female Xenopus laevis African frogs (NASCO, Ft. Atkinson, Wis.) were used as a source of oocytes. Prior to surgery, frogs were anesthetized by placing the animal in a 1.5 g/l solution of MS222 (3-aminobenzoic acid ethyl ester) for 30 minutes. Oocytes were removed from an incision made in the abdomen.\nIn order to remove the follicular cell layer, harvested oocytes were treated with 1.25 mg/ml collagenase from Worthington Biochemical Corporation (Freehold, N.J.) for 2 hours at room temperature in calcium-free Barth's solution (88 mM NaCl, 10 mM HEPES pH 7.6, 0.33 mM MgSO4, 0.1 mg/ml gentamicin sulfate). Subsequently, stage 5 oocytes were isolated and injected with 50 nl (5-20 ng) each of the appropriate subunit cRNAs. Recordings were made 2 to 15 days after injection.\nRat neuronal nAChR clones and mouse muscle nAChR cDNA clones were used. The wild-type clones were obtained from Dr. Jim Boulter (UCLA). The rat α6/3 (Dowell et al. J Neurosci, 2003, 23:8445-8452) clone was obtained from Michael McIntosh (University of Utah) and expressed in Xenopus oocytes in combinations with rat β2 and β3. […] The TM2 domain is understood to line the pore of the channel, with alpha helix structure. The 7′ position may actually be directed away from the actual pore lining, but this residue is highly conserved in all of the nAChR. It is valine in all of them except α9 (isoleucine) and β1, where it is alanine. The TM2 mutation in the α6/3 chimera was corrected by using QuickChange (Stratagene) according to their protocols. The corrected α6/3 chimera sequence was confirmed by restriction diagnostics and by automated fluorescent sequencing (University of Florida core facility). The corrected clone was expressed as above in Xenopus oocytes with β2 and β3 and compared to the wild-type α3 co-expressed with β2 and β3.\nAfter linearization and purification of cloned cDNAs, RNA transcripts were prepared in vitro using the appropriate mMessage mMachine kit from Ambion Inc. (Austin, Tex.).\nElectrophysiology. The majority of experiments were conducted using OpusXpress 6000A (Axon Instruments, Union City Calif.). OpusXpress is an integrated system that provides automated impalement and voltage clamp of up to eight oocytes in parallel. Cells were automatically perfused with bath solution, and agonist solutions were delivered from a 96-well plate. Both the voltage and current electrodes were filled with 3 M KCl. The agonist solutions were applied via disposable tips, which eliminated any possibility of cross-contamination. Drug applications alternated between ACh controls and experimental applications. Flow rates were set at 2 ml/min for experiments with α7 receptors and 4 ml/min for other subtypes. Cells were voltage-clamped at a holding potential of −60 mV. Data were collected at 50 Hz and filtered at 20 Hz. Agonist applications were 12 seconds in duration followed by 181-second washout periods for α7 receptors and 8 seconds with 241-second wash periods for other subtypes. For some experiments, particularly under conditions where residual inhibition precluded making repeated measurements from single cells (see below), manual oocyte recordings were made as previously described (Papke and Papke Br J of Pharmacol, 2002, 137:49-61). In brief, Warner Instruments (Hamden, Conn.) OC-725C oocyte amplifiers were used, and data were acquired with a minidigi or digidata 1200A with pClamp9 software (Axon Instruments). Sampling rates were between 10 and 20 Hz and the data were filtered at 6 Hz. Cells were voltage clamped at a holding potential of −50 mV.\nExperimental protocols and data analysis. Each oocyte received two initial control applications of ACh, an experimental drug application (or co-application of ACh and TMPH), and then follow-up control application(s) of ACh. The control ACh concentrations for α1β1γδ, α3β4, α4β2, α3β2, α3β2α5, α3β2β3, α6/3β2β3 α6β4β3 and α7, receptors were 30 μM, 100 μM, 10 μM, 30 μM, 1 μM 100 μM 100 μM 100 μM and 300 μM, respectively. […]"}}, "note": "Values joined by “and” are separate entries in the source; they are usually repeats but may differ in a detail not shown here. Identical values can stand only once. Like-named read-outs stand apart in the source and are kept apart here."}
{"molecule": "CCCCCCC(=O)OC1CC(C)(C)NC(C)(C)C1", "note": "[TMPH, 2,2,6,6-tetramethylpiperidin-4-yl heptanoate]", "values": [{"measurement": "effect on hypomotility induced by nicotine", "setting": "mice; TMPH 20 mg/kg s.c. 15 minutes prior to nicotine (1.5 mg/kg)", "value": "failed to significantly reduce"}, {"measurement": "Locomotor Activity # Interrupts (Mean ± SEM)", "setting": "mice; TMPH (20 mg/kg)/Nicotine (1.5 mg/kg)", "value": "397 ± 170 # Interrupts"}, {"measurement": "Locomotor Activity # Interrupts (Mean ± SEM)", "setting": "mice; TMPH (20 mg/kg)/Saline", "value": "2031 ± 160 # Interrupts"}, {"measurement": "blockade of nicotine-induced hypomotility", "setting": "mice; TMPH @ 20 mg/kg", "value": 0, "unit": "% blockade @ 20"}, {"measurement": "effect of TMPH by itself on locomotor activity", "setting": "mice; s.c. injection, at the indicated doses and times", "value": "did not have a significant effect"}, {"measurement": "inhibition at 0.1 µM", "setting": "Rat α4β2; 100 nM TMPH, after 3 applications at 10-minute intervals, read-out: inhibition after repeated co-applications of ACh with TMPH", "value": 90, "unit": "%"}, {"measurement": "use-independent inhibition, TMPH applied alone", "setting": "Rat α4β2; 1 μM TMPH alone versus co-applied with ACh", "value": "almost as effective as when co-applied with ACh"}, {"measurement": "IC50", "setting": "Rat α4β2; decrease in net charge, 10 μM ACh co-applied with TMPH, single co-application, read-out: IC50 (area)", "value": "100 nM and 110 nM"}, {"measurement": "IC50", "setting": "Rat α4β2; decrease in peak current amplitude, 10 μM ACh co-applied with TMPH, read-out: IC50 (peak)", "value": 1400, "unit": "nM"}, {"measurement": "reversibility of inhibition", "setting": "Rat α4β2; following a 5-minute wash", "value": "virtually no recovery"}, {"measurement": "IC50", "setting": "Rat α4β2; from shift of the net charge inhibition curve so that 100 nM is the IC90, read-out: equilibrium IC50", "value": "~10", "unit": "nM"}, {"measurement": "IC50", "setting": "Rat α4β2; inhibition still present after 5-minute wash, read-out: IC50 (recovery)", "value": "250 ± 80", "unit": "nM"}, {"measurement": "IC50 net charge/IC50 peak", "setting": "Rat α4β2; ratio", "value": 0.08}, {"measurement": "IC50 recovery/IC50 net charge", "setting": "Rat α4β2; ratio", "value": 2.3}]}
